The target of assay [1] is T1, human TLR4/MD2 (Homo sapiens, UniProt O00206+Q9Y6Y9).
T1 construct: host or cells: HEK293
Briefly: hTLR4/MD2-HEK293 transfectant SEAP (QUANTI-Blue) dose response, AUC. To be noted: 1 μg/ml to 4 ng/ml, 24 h, SEAP OD 650 nm vs log concentration. The assay is classed as cell-based. How it is done: (§1) Cells were seeded in tissue culture treated clear flat bottom polystyrene 96 well plates (Costar, 3598) at 1e4 cells/well. Concentration-response curves were generated by addition of test compounds and incubation for 20 h at 37°C in an atmosphere of 5% CO2. LPS (E. coli 0111:B4, Ultra-pure, Invivogen) or PHAD (Avanti Polar Lipids) was used as a positive control. The SEAP released was quantified using p nitrophenyl phosphate as a substrate, and the absorbance at 405 nm was measured at 30 second intervals over several minutes using a microplate reader. Some data are recorded as the pEC50, the negative log of the EC50 value. Other data generated from these reporter cell lines were converted to AUC (area under the curve) values by interpolation of fitted cubic spline curve between OD value and log concentration levels. The calculation is performed using MESS package in statistical software R (www.r-project.org/).
(§2) Fig 4 Ugi compounds preferentially activate TLR4-HEK transfectants expressing human MD2. A-B) HEK293 cells transfected with human TLR4/MD2 or mouse TLR4/MD2 (InVivogen) were stimulated with TLR4 agonists including MPL, PHAD, and Ugi compounds at 1 μg/ml to 4 ng/ml and with LPS at 25 ng/ml to 64 pg/ml for 24 h. SNs were analyzed for SEAP content by the QUANTI-Blue assay (InVivogen) and analysis at 650 nm by spectrophotometer. AUC (area under the curve) values were calculated as in Methods. No AUC value was calculated for LPS since it was utilized with a different dose range. C) HEK transfectants with cis- or trans-species expression of TLR4, MD2, and CD14 were stimulated with Ugi compounds in a dose response range of 9 μM to 1 nM or with LPS (boxes) at 75 ng/ml to 5 pg/ml for 48 h. Data was obtained as Vmax calculated over the initial linear portion of the kinetic absorbance measurements. The AUC (area under the curve) value for the dose response curve of Vmax vs log10 (molar units) was calculated for each compound using Trapezoidal rule. TEXT PRINTED IN THE PICTURE: (A) MPL: hTLR4-HEK AUC: 0.55 | (A) AZ617: hTLR4-HEK AUC: 5.90 | (A) AZ618: hTLR4-HEK AUC: 6.56 | (A) AZ839: hTLR4-HEK AUC: 6.00 | (A) AZ161: hTLR4-HEK AUC: 5.54 | (A) AZ902: hTLR4-HEK AUC: 7.04 | (A) GLA: hTLR4-HEK AUC: 3.75 | (B) MPL: mTLR4-HEK AUC: 13.27 | (B) AZ617: mTLR4-HEK AUC: 0.89 | (B) AZ618: mTLR4-HEK AUC: 1.03 | (B) AZ839: mTLR4-HEK AUC: 0.93 | (B) AZ161: mTLR4-HEK AUC: 0.99 | (B) AZ902: mTLR4-HEK AUC: 1.55 | (B) GLA: mTLR4-HEK AUC: 14.24

Assay [2] has as its target T2, mouse TLR4/MD2 (Mus musculus, UniProt Q9JHF9+Q9QUK6).
T2 construct: host or cells: HEK293
T2 sequence (Q9QUK6 26-835): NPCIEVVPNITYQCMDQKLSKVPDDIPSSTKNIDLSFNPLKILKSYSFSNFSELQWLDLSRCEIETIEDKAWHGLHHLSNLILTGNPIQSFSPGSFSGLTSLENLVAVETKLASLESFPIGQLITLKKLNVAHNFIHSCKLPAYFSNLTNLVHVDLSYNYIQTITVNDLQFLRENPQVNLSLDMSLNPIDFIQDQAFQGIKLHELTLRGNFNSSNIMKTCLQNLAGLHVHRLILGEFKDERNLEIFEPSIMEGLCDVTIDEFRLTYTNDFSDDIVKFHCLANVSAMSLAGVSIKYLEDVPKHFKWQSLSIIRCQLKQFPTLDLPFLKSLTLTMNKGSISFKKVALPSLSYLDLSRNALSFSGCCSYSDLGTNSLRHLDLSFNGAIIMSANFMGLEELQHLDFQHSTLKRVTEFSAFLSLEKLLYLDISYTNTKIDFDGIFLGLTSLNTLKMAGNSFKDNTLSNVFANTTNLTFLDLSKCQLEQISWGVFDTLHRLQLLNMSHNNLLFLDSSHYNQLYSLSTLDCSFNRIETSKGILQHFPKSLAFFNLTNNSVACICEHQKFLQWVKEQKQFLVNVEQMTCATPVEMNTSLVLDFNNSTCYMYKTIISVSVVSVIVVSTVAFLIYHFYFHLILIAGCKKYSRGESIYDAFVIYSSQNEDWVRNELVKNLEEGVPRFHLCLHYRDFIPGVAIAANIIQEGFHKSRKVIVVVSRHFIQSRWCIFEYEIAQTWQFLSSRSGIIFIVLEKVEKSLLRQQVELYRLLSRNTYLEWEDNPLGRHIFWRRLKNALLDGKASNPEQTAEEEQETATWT
T2 sequence (Q9JHF9 19-160): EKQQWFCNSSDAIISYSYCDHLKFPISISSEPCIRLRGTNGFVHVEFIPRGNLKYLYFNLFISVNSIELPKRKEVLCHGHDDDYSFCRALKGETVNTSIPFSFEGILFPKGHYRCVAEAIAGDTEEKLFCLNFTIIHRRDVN
Briefly: mTLR4/MD2-HEK293 transfectant SEAP (QUANTI-Blue) dose response, AUC. In kind it is cell-based. Particulars: 1 μg/ml to 4 ng/ml, 24 h, SEAP OD 650 nm vs log concentration. The procedure:
as §1, §2

T1 sequence (O00206 24-839): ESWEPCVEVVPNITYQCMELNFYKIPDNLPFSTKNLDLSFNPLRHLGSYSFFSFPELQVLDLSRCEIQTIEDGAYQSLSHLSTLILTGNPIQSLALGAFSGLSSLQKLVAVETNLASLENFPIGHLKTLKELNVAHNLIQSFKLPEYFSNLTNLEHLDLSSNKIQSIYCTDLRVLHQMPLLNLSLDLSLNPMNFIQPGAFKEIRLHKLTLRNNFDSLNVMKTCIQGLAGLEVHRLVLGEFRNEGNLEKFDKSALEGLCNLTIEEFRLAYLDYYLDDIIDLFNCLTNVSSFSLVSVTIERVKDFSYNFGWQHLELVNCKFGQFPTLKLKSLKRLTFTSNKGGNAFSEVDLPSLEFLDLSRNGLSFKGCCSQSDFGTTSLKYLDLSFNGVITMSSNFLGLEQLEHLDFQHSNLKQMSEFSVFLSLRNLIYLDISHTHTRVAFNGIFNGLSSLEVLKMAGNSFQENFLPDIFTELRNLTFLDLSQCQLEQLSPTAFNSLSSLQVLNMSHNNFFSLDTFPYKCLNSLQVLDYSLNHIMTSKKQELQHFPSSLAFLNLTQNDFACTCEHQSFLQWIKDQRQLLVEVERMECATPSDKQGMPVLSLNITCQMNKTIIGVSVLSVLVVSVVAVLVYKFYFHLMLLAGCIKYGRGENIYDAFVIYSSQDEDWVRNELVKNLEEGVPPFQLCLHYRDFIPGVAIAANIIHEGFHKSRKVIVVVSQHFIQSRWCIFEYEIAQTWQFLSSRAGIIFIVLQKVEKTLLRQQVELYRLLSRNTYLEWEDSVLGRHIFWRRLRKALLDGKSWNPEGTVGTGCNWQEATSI
T1 sequence (Q9Y6Y9 19-160): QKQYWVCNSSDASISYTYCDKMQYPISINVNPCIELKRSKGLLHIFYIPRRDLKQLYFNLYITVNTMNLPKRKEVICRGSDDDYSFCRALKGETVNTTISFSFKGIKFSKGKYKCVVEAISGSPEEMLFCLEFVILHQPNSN

In the case of `CC(C)(C)c1ccc(N(C(=O)c2cc(-c3ccccc3)n(-c3ccccc3)n2)C(C(=O)NC2CCCC2)c2ccc(CC(=O)O)cc2)cc1` (centres unmarked) [AZ902], the “hTLR4-HEK AUC” value in assay [1] came out at 7.04. For the same compound, the “mTLR4-HEK AUC” value in assay [2] was 1.55.

As for `Cc1ccc(N(C(=O)c2cc(-c3ccccc3)n(-c3ccccc3)n2)C(C(=O)NC2CCCC2)c2ccc(CC(=O)O)cc2)cc1Cl` (centres unmarked) [AZ161], the “hTLR4-HEK AUC” value in assay [1] is 5.54. Also, in assay [2], the “mTLR4-HEK AUC” value is on record as 0.99.

`O=C(O)Cc1ccc(C(C(=O)NC2CCCC2)N(C(=O)c2cc(-c3ccccc3)n(-c3ccccc3)n2)c2ccc3c(c2)CCC3)cc1` (centres unmarked) [AZ617]: the “hTLR4-HEK AUC” value in assay [1] came out at 5.90. In addition, the “mTLR4-HEK AUC” value in assay [2] stood at 0.89.

`Cc1cc(C)cc(N(C(=O)c2cc(-c3ccccc3)n(-c3ccccc3)n2)C(C(=O)NC2CCCC2)c2ccc(CC(=O)O)cc2)c1` (centres unmarked) [AZ618, 2-(4-(2-(cyclopentylamino)-1-(N-(3,5-dimethylphenyl)-1,5-diphenyl-1H-pyrazole-3-carboxamido)-2-oxoethyl)phenyl)acetic acid]: the “hTLR4-HEK AUC” value in assay [1] was 6.56. Further, in assay [2], the “mTLR4-HEK AUC” value amounted to 1.03.

(Values after paper PMC5063506, “A Novel Class of Small Molecule Agonists with Preference for Human over Mouse TLR4 Activation” (PLoS ONE, 2016).)
